The values that follow are results of earlier work, collected in patent US20110294815A1, “PROSTACYCLIN ANALOGS” (priority 2008, published 2011).

For this data set the following is noted: patients with hepatic insufficiency vs healthy adults.

With `CCCCC[C@H](O)CC[C@@H]1[C@H]2Cc3cccc(OCC(=O)[O-])c3C[C@H]2C[C@H]1O.[Na+]` [treprostinil, (1R,2R,3aS,9aS)-[[2,3,3a,4,9,9a-Hexahydro-2-hydroxy-1-[(3S)-3-hydroxyoctyl]-1H-benz[f]inden-5-yl]oxy]acetic acid monosodium salt], the “reduction of clearance compared to healthy adults” value is “up to 80%”.
